According to patent publication US11633447B2, “Pharmaceutical composition and functional health food for preventing or treating macular degeneration” (LEMONEX INC., priority 2018, dated 2023):

Key:
[1] = system: ARPE-19 cells; test: Retinal pigment epithelial cell protection against blue light-induced photooxidation after A2E accumulation (cell counting kit-8 viability); assay type: cell-based; conditions: 17.04 μg/mL (30 μM) for 24 hours; 20 μM A2E; blue light 4,000 lux 10 minutes; difference control vs blue light group set to 100%
Protocol: Since it is already known that photooxidation occurs when retinal pigment epithelial cells accumulated with A2E are irradiated with blue light, it was confirmed whether cytotoxicity derived by irradiation with blue light after 20 μM A2E accumulation in ARPE-19 cells could be suppressed using the banaba leaf extract, guava leaf extract, and the mixture thereof. Specifically, all ARPE-19 cells were treated with A2E at a concentration of 20 μM for 24 hours, and then treated with 100 μg/mL of the banaba leaf extract, the guava leaf extract, and the mixture thereof in Example 1, respectively, or 17.04 μg/mL (30 μM) of lutein for 24 hours. Thereafter, the treated cells were irradiated with blue light (4,000 lux) for 10 minutes. 24 hours after blue light irradiation, cell viability of ARPE-19 cells was measured by a cell counting kit-8 (Dojindo Labs, Japan), and the percentage of cell viability of each treatment group was compared to the control not irradiated with blue light. Lutein was used as a positive control. […] By setting a difference in cell viability between the control not irradiated with blue light and the blue light irradiated group to be 100%, cell protective effects of each extract were estimated by calculating cell protective effects through a difference in cell viability between the blue light irradiated group and the treated group. […]

[2] = system: Balb-c mice; test: Blue light-induced macular degeneration animal model, thickness of outer nuclear layer (ONL) by H&E staining; assay type: in vivo; conditions: oral, once daily, 50 mg/kg, blue light 10,000 lux 1 hour per day for 14 days
Protocol: Balb-c mice (5 weeks old, males) were acclimated and bred for 2 days, and then orally administered with each of the banaba leaf extract, the guava leaf extract, the mixture thereof or lutein (50 mg/kg) once daily for 7 days. Then, after 24 hours of dark acclimatization, each of the extracts and the mixture and lutein was orally administered for 14 days, and 30 minutes later, followed by blue light irradiation at 10,000 lux for 1 hour per day. 24 hours after the blue light irradiation and the end of administration of the extract, the mice were sacrificed to an extract eyeball, and then, retinal cell protective effects were determined through tissue staining (FIG. 4).
The extracted eyeball tissue was fixed with a neutral buffered formalin solution. The fixed eyeball was washed with running water and was subjected to a dehydration process using alcohol. Thereafter, a clearing process was performed using Xylene, and proper rigidity was given to the tissue using paraffin. The eyeball was made into a predetermined shape of paraffin block, and then cut to 4 μm thickness. The cut eyeball was subjected to hematoxylin & eosin (H & E) staining. […] Then, a thickness of the outer nuclear layer (ONL) of the visual cell was measured by Image J software (National Institute of Health, […], Md., USA)), followed by counting the number of nuclei. […]

CC1=C[C@H](O)CC(C)(C)[C@H]1/C=C/C(C)=C/C=C/C(C)=C/C=C/C=C(C)/C=C/C=C(C)/C=C/C1=C(C)C[C@@H](O)CC1(C)C [lutein]
cell protective effect (cell viability) [1]: 48.4%
ONL thickness change in administered groups [2]: significantly increased ONL thickness
ONL protective effect (ONL thickness) ([2]; difference control vs blue light group set to 100%): 28.2%
